Source: patent US20190134033A1, “PHARMACEUTICAL COMBINATIONS” (Novartis AG, priority 2013, published 2019)

Columns and labels:
[1] = system: TRP-590A-SHSY5Y-XEF (ALK F1174L mutated); assay: SY5Y Xenograft, LDK378 and CGM097 alone and combined (FIG. 6); format: in vivo
[2] = system: p53; assay: Induction of p53 and its downstream target genes in ALK mutant and p53 WT neuroblastoma cell lines; format: cell-based
Experimental: (§1) Compound stocks of LDK378 (compound B) and NVP-CGM097 (compound A) are prepared in DMSO at a final concentration of 10 mM. Working stocks of compound A and compound B are serially diluted in the appropriate cell culture medium to achieve final assay concentrations ranging from 10 μM to 0.039 μM.
(§2) ALK+NB neuroblastoma cell line is disclosed in G. Barone, et al in the journal Clin. Cancer Res., Vol 19, pp 5814-5821 (2013).

[3] = system: NB-1 neuroblastoma xenograft; assay: NB-1 neuroblastoma in vivo xenograft model, LDK378 and Compound C alone and combined (Example 2, FIG. 8); details: NB1 model, PO QD, LDK378 50 mg/kg, Compound C 20 mg/kg
Experimental: The combination of LDK378 (Compound B) and HDM-2/p53 inhibitor (S)-5-(5-Chloro-1-methyl-2-oxo-1,2-dihydro-pyridin-3-yl)-6-(4-chloro-phenyl)-2-(2,4- dimethoxy-pyrimidin-5-yl)-1-isopropyl-5,6-dihydro-1H-pyrrolo[3,4-d]imidazol-4-one (Compound C) were tested in NB-1 neuroblastoma in vivo xenograft model. A total of 5 animals per group were enrolled in efficacy study. For single-agent and combination studies, animals were dosed via oral gavage for both LDK378 and Compound C. LDK378 was formulated in 0.5% CMC/0.5% Tween 80, and Compound C was formulated in Methylcellulose 0.5% w/V in pH 6.8 50 mM phosphate buffer at 20 mg/kg as free base. For NB1 model, the tumors reached approximately 200 mm^3 at day 16 post implantation. On Day 16, tumor-bearing mice were randomized into treatment groups.
Animals were weighed at dosing day(s) and dose was body weight adjusted, dosing volume was 10 ml/kg. Tumor dimensions and body weights were collected at the time of randomization and twice weekly thereafter for the study duration. The following data was provided after each day of data collection: incidence of mortality, individual and group average body weights, and individual and group average tumor volume.

[4] = system: ALK; assay: ALK phosphorylation in ALK mutant and p53 WT neuroblastoma cell lines; format: cell-based
Experimental: as §1, §2

[5] = system: NB-1 Xenograft; assay: NB-1 Xenograft, LDK378 single agent and combinations with CGM097 and LEE011 (FIG. 5, FIG. 7); format: in vivo
Description: FIG. 5 summarizes data for treatments with LDK378 (ALK inhibitor) and CGM097 (HDM-2/P53 Inhibitor) as single agents and in combination in a NB-1 Xenograft.
FIG. 7 summarizes data for LDK378 Single Agent and Combination Treatments with NVP-CGM097 in a NB-1 Xenograft. […] After treatment termination, tumors resumed growth.

Compound | tumor growth under continuous treatment [1] | induction of p53 and its downstream target genes [2] | T/C % on day 25 [3] [%] | T/C % on day 25 ([3]; listed as COMPOUND C) [%] | ALK phosphorylation [4] | tumor growth under continuous treatment [5]
COc1cc2c(cc1OC(C)C)[C@H](c1ccc(Cl)cc1)N(c1ccc(N(C)C[C@H]3CC[C@H](N4CCN(C)C(=O)C4)CC3)cc1)C(=O)C2 [CGM097, (S)-1-(4-Chloro-phenyl)-7-isopropoxy-6-methoxy-2-(4-{methyl-[4-(4-methyl-3-oxo-piperazin-1-yl)-trans-cyclohexylmethyl]-amino}-phenyl)-1,4-dihydro-2H-isoquinolin-3-one] | continued to grow | caused induction of p53 and its downstream target genes |  |  |  | 
COc1ncc(-c2nc3c(n2C(C)C)[C@H](c2ccc(Cl)cc2)N(c2cc(Cl)cn(C)c2=O)C3=O)c(OC)n1 [Compound C, (S)-5-(5-Chloro-1-methyl-2-oxo-1,2-dihydro-pyridin-3-yl)-6-(4-chloro-phenyl)-2-(2,4-dimethoxy-pyrimidin-5-yl)-1-isopropyl-5,6-dihydro-1H-pyrrolo[3,4-d]imidazol-4-one] |  |  | 50.8 | 50.80 |  | 
Cc1cc(Nc2ncc(Cl)c(Nc3ccccc3S(=O)(=O)C(C)C)n2)c(OC(C)C)cc1C1CCNCC1 [LDK378, 5-chloro-N2-(2-isopropoxy-5-methyl-4-(piperidin-4-yl)phenyl)-N4-[2-(propane-2-sulfonyl)-phenyl]-pyrimidine-2,4-diamine] | continued to grow |  | 27.6 |  | inhibited ALK phosphorylation | resumed growth before day 41
